From patent US20190106460A1, “BINDING INHIBITORS OF THE BETA. TRANSDUCIN REPEAT-CONTAINING PROTEIN” (priority 2011, published 2019) come the findings set out here.

Non-standard residues stand in square brackets, D forms with d. Residues, ends and D or L forms follow the SMILES beside them. Groups on a side chain read outwards from the residue. *: point of attachment. X3 = CC(C)CCC[C@@H](C)[C@H]1CCC2C3CC=C4C[C@@H](OC(=O)*)CC[C@]4(C)C3CC[C@@]21C; Benzenesulfonyl(4-OMe) = COc1ccc(S(=O)(=O)*)cc1; Phe(3-F) = N[C@@H](Cc1cccc(F)c1)C(=O)O; Ahx = NCCCCCC(=O)O

Common to all, as to format: cell-based
One test deals with LNCaP (prostate cancer). The test is described as follows: xCELLigence cell viability / proliferation, LNCaP. Here is the method:
Example 9—Cell Based Activity of Cell Permeable Compounds on the xCELLigence Platform
The effects of the compounds shown in FIGS. 14A-14B were tested on cancer cell lines MCF7 (breast cancer) and LNCaP (prostate cancer) using the xCELLigence platform (http://www.roche-applied-science.com/sis/xcelligence/ezhome.html). This method of measuring cell viability via measuring cell index is known in the art.
Different doses of the compounds were tested on MCF7 cells to see if there would be an effect on their cell viability.
The control compound was compared to its partner active compound (UBP037).
(§1) xCELLigence Method • Before starting the experiment add 50 μL of medium (RPMI 1640, 10% fetal bovine serum, 100 units/mL penicillin, 100 ug/mL streptomycin, and 2 mmol/L glutamine, all from GIBCO) to each well of 96 well E-plate (Roche) and place the plate in the xCELLigence platform to measure the background. • LNCaP/PNT-1 cells are seeded (LNCaPs 80000 cells/well; PNT1 3000 cells/well) in the plate in complete medium and equilibrated for 60 mins at RT before returning to the xCELLigence platform and incubating at 37° C./5% CO2. • 24 hrs after seeding, remove 100 μL of medium was removed from each well and cells were treated with compounds or DMSO diluted in 100 μL of OptiMEM (GIBCO). • Replace the plate in the xCELLigence platform • Cells growth can then be monitored in real-time by the cell index profile on the xCELLigence readout screen • Cell growth can be expressed as normalized cell index and doubling time/slope calculated using the RTCA software.

The next test concerns PNT-1 cell line. The test can be described thus: xCELLigence cell growth, non-malignant PNT-1. Here is the method: as §1
The susceptibility of cancer cell lines versus non-cancer cell lines following treatment with the compounds was also investigated.

The test system of the next test is β-catenin in MCF7 cells. The test is described as follows: β-Catenin in cell western. Here is the method: β-Catenin in Cell Western
Plating of the MCF7 cells onto 96 well plates—this step is carried out 1 day before the treatment of the cells to allow the cells to adhere well to the tissue culture plastic. MCF7 cells to be used for seeding should be less than 100% confluent in a 10 cm dish. Add 3 ml of RT trypsin/EDTA to the cells. Incubate at 37° C./5% CO2 for a few minutes until the cells easily come away from the plastic by gentle swirling. Add 7 ml of media to the cells. Wash the bottom of the plate gently with the 10 ml to ensure all cells are captured and dispense into a 15 ml falcon. Add 1001l of the cells to 1001l of Trypan blue and add to haemocytometer to count the number of cells present. Make up approx 10 ml of cells in media at 2×10^4 cells/1001l (well) with fresh media. Add this correct seeding density to a 10 cm dish. Dispense 1001l of cells/well into a 96 well plate without using the outside wells. Incubate at 37° C./5% CO2 overnight
Treatment of MCF7 cells with compound of interest (COI) and controls—Put OptiMEM into 37° C. water bath to warm. Add 4 ul of 50 mM compound X for testing to eppendorf—this is tube 1. Add 2 al DMSO to 6 tubes marked tube 2-7. Take 21 al of 50 mM (COI) and add to 2 al of DMSO in tube 2 and pipette up and down to mix. Take 21 al from tube 2 and add to 2 μl DMSO in next tube and mix. […]

In the case of `COc1ccc(S(=O)(=O)N[C@H](CC(=O)O)C(=O)N[C@@H](CCC(=O)O)C(=O)NCC(=O)N[C@@H](Cc2cccc(F)c2)C(=O)N[C@@H](Cc2c[nH]c3ccccc23)C(=O)N[C@@H](CCC(=O)O)C(=O)NCCCCCC(=O)N[C@@H](CCCCNC(=O)CCCCCNC(=O)O[C@H]2CC[C@@]3(C)C(=CCC4C3CC[C@@]3(C)C4CC[C@@H]3[C@H](C)CCCC(C)C)C2)C(N)=O)cc1` (stereo partly drawn) [UBP036, 4-(MeO)PhSO2-dEGF(3F)WE-Ahx-K(Ahx-Chol)-NH2] ({Benzenesulfonyl(4-OMe)}-[dD]EG[Phe(3-F)]WE[Ahx]K([Ahx-X3])-NH2), in the test with LNCaP (prostate cancer), the “cell growth / proliferation, xCELLigence” value is “inhibit the growth”. Besides, the “cell growth, xCELLigence” value with PNT-1 cell line is listed as “far less effect”. Besides, the “accumulation of β-catenin, in cell western” value in the test with β-catenin in MCF7 cells is recorded as “accumulation of β-catenin”.
